Measured values published in US20230271950A1, “ANTIBACTERIAL PICOLINAMIDE COMPOUNDS” (University of Notre Dame Du Lac, priority 2020, published 2023).
Values after ≈ are worked out from the molar mass of the structure shown. Like-named read-outs stand apart in the source and are kept apart here.

Legend:
C. difficile = assay: MIC by broth microdilution against C. difficile strains; format: cell-based, Clostridioides difficile; conditions: for MIC: Clostridioides difficile
MRSA (NRS70, NRS119) = assay: MIC against MRSA strains; format: cell-based, Staphylococcus aureus; conditions: Staphylococcus aureus
S. aureus ATCC29213 = assay: MIC against MSSA; format: cell-based, Staphylococcus aureus; conditions: Staphylococcus aureus; MSSA ATCC 29213; Table 10, unit inferred; read-out: Activity (MIC) against S. aureus
E. faecium NCTC7171 = assay: MIC against E. faecium; format: cell-based, Enterococcus faecium; conditions: Enterococcus faecium, NCTC7171; E. faecium NCTC 7171; Table 10, unit inferred; read-out: Activity (MIC) against E. faecium
Bacteroides fragilis = assay: MIC against gut bacterium Bacteroides fragilis; format: cell-based; conditions: Bacteroides fragilis, Bacteroides fragilis strain HM-709; Table 7; read-out: MIC
Bifidobacterium longum = assay: MIC against gut bacterium Bifidobacterium longum; format: cell-based; conditions: Bifidobacterium longum, Bifidobacterium longum strain HM-846; Table 7; read-out: MIC
Corynebacterium spp. = assay: MIC against gut bacterium Corynebacterium spp.; format: cell-based; conditions: Corynebacterium, Corynebacterium spp. strain HM-784; Table 7
Fusobacterium nucleatum = assay: MIC against gut bacterium Fusobacterium nucleatum; format: cell-based; conditions: Fusobacterium nucleatum, Fusobacterium nucleatum strain HM-992; Table 7; read-out: MIC
Lactobacillus reuteri = assay: MIC against gut bacterium Lactobacillus reuteri; format: cell-based; conditions: Limosilactobacillus reuteri; Lactobacillus reuteri strain HM-102; Table 7; read-out: MIC
Lactobacillus gasseri = assay: MIC against gut bacterium Lactobacillus gasseri; format: cell-based; conditions: Lactobacillus gasseri strain HM-644; Table 7; read-out: MIC
Veillonella sp. HM-49 = assay: MIC against gut bacterium Veillonella sp.; format: cell-based; conditions: SP.HM49; Veillonella sp. strain HM-49; Table 7; read-out: MIC
Eubacterium sp. = assay: MIC against gut bacterium Eubacterium sp.; format: cell-based; conditions: Eubacterium, Eubacterium sp. strain HM-178; Table 7; read-out: MIC

MIC (C. difficile; ATCC43255, ATCC 43255, ribotype 087, Table 3 (SAR^2 and SAR^3), read-out: MIC C. difficile): 0.125 µg/mL (≈ 0.374 µM)
MIC (C. difficile; ATCC43255, C. difficile ATCC43255, Table 7, read-out: MIC): 0.125 µg/mL (≈ 0.374 µM)
MIC (C. difficile; ATCC43255, C. difficile ATCC 43255, read-out: MIC against C. difficile): 0.125 µg/mL (≈ 0.374 µM)
MIC (C. difficile; ATCC43598, C. difficile ATCC43598, Table 7, read-out: MIC): 0.25 µg/mL (≈ 0.748 µM)
MIC (C. difficile; BAA1801, C. difficile BAA-1801, Table 7, read-out: MIC): 0.25 µg/mL (≈ 0.748 µM)
MIC (C. difficile; BAA1803, C. difficile BAA-1803, Table 7, read-out: MIC): 0.25 µg/mL (≈ 0.748 µM)
MIC (C. difficile; BAA1804, C. difficile BAA-1804, Table 7, read-out: MIC): 0.125 µg/mL (≈ 0.374 µM)
MIC (C. difficile; BAA1812, C. difficile BAA-1812, Table 7, read-out: MIC): 0.25 µg/mL (≈ 0.748 µM)
MIC (C. difficile; BAA1814, C. difficile BAA-1814, Table 7, read-out: MIC): 0.125 µg/mL (≈ 0.374 µM)
MIC (C. difficile; BAA1870, C. difficile BAA-1870, Table 7, read-out: MIC): 0.25 µg/mL (≈ 0.748 µM)
MIC (C. difficile; C. difficile 23691 (VR, vancomycin-resistant), Table 7, read-out: MIC): 0.5 µg/mL (≈ 1.5 µM)
MIC (C. difficile; C. difficile 23828 (FR, fidaxomicin-resistant), Table 7, read-out: MIC): 0.25 µg/mL (≈ 0.748 µM)
MIC (C. difficile; C. difficile 24531 (VR, vancomycin-resistant), Table 7, read-out: MIC): 0.25 µg/mL (≈ 0.748 µM)
MIC (C. difficile; C. difficile 24923 (VR, vancomycin-resistant), Table 7, read-out: MIC): 0.5 µg/mL (≈ 1.5 µM)
MIC (C. difficile; C. difficile 26675 (MR, metronidazole-resistant), Table 7, read-out: MIC): 0.5 µg/mL (≈ 1.5 µM)
MIC (C. difficile; C. difficile 27081 (FR, fidaxomicin-resistant), Table 7, read-out: MIC): 0.5 µg/mL (≈ 1.5 µM)
MIC (C. difficile; C. difficile 27173 (MR, metronidazole-resistant), Table 7, read-out: MIC): 0.5 µg/mL (≈ 1.5 µM)
MIC (C. difficile; C. difficile NR49292, Table 7, read-out: MIC): 0.25 µg/mL (≈ 0.748 µM)
MIC (C. difficile; C. difficile NR49294, Table 7, read-out: MIC): 0.25 µg/mL (≈ 0.748 µM)
MIC (C. difficile; C. difficile NR49302, Table 7, read-out: MIC): 0.25 µg/mL (≈ 0.748 µM)
MIC (C. difficile; C. difficile NR49305, Table 7, read-out: MIC): 0.25 µg/mL (≈ 0.748 µM)
MIC (C. difficile; C. difficile NR49310, Table 7, read-out: MIC): 0.125 µg/mL (≈ 0.374 µM)
MIC (C. difficile; C. difficile NR49318, Table 7, read-out: MIC): 0.25 µg/mL (≈ 0.748 µM)
MIC (C. difficile; C. difficile, Table 8, read-out: MIC): 0.125 µg/mL (≈ 0.374 µM)
MIC (MRSA (NRS70, NRS119); MRSA NRS70, Table 7, read-out: MIC): 128 µg/mL (≈ 383 µM)
MIC (MRSA (NRS70, NRS119); MRSA strain NRS70, read-out: MIC against MRSA): 128 µg/mL (≈ 383 µM)
MIC (MRSA (NRS70, NRS119); NRS70 strain, Table 3 (SAR^2 and SAR^3), read-out: MIC MRSA): 128 µg/mL (≈ 383 µM)
MIC (S. aureus ATCC29213): ≥ 128 µg/mL
MIC (E. faecium NCTC7171): ≥ 128 µg/mL
MIC (Bacteroides fragilis): 4 µg/mL (≈ 12 µM)
MIC (Bifidobacterium longum): > 16 µg/mL
MIC (Corynebacterium spp.): 16 µg/mL (≈ 47.9 µM)
MIC (Fusobacterium nucleatum): 8 µg/mL (≈ 23.9 µM)
MIC (Lactobacillus reuteri): 4 µg/mL (≈ 12 µM)
MIC (Lactobacillus gasseri): > 16 µg/mL
MIC (Veillonella sp. HM-49): 16 µg/mL (≈ 47.9 µM)
MIC (Eubacterium sp.): 8 µg/mL (≈ 23.9 µM)
Compound: O=C(Nc1ncco1)c1cc(-c2ccc(Cl)c(Cl)c2)ccn1 [Compound 87, 4-(3,4-Dichlorophenyl)-N-(oxazol-2-yl)picolinamide]
Selectivity (C. difficile; MIC MRSA NRS70/MIC C. difficile ATCC43255, Table 7): 1024
Selectivity (C. difficile; MIC MRSA/MIC C. difficile, Table 3): 1024
Selectivity (C. difficile; Table 8): 1024
